The experiment addresses T1, human CXCR4 receptor (Homo sapiens, UniProt P61073).
T1 construct: expressed in transfected cells
The experiment is described as follows: Measurement of intracellular Ca+2 responses (FLIPR), antagonism of the SDF-1α response. It is filed as cell-based. Particulars: for IC50: HEK-Gqi5 cells stably expressing human CXCR4, Fluo-4 FLIPR, antagonism of SDF-1α 1.9 nM (EC65); for CXCR4 (% Inh): percent antagonism of SDF-1α 1.9 nM (EC65) response, HEK-Gqi5 human CXCR4 cells, value in brackets. Here is the method:
Measurement of Intracellular Ca^+2 Responses for CXCR4 Compounds
HEK-Gqi5 cells stably expressing the human CXCR4 receptor were utilized for these studies. The growth media for the CXCR4 receptor expressing cell line was DMEM high glucose medium supplemented with 10% fetal bovine serum (FBS), 1% antibiotic-antimycotic, 50 ug/ml hygromycin B, and 400 μg/ml geneticin. Ten thousand cells per well were plated into 384-well poly-D-lysine coated plates one day prior to use. On the day of the experiment, the cells were washed twice with Hank's Balanced Salt Solution supplemented with 20 mM hepes (HBSS/hepes buffer). The cells were then dye loaded with 2 uM Fluo-4 diluted in the HBSS/Hepes buffer and incubated at 37° C. for 40 minutes. Extracellular dye was removed by washing the cell plates four times prior to placing the plates in the FLIPR (Fluorometric Imaging Plate Reader, Molecular Devices). Ligands were diluted in HBSS/Hepes buffer and prepared in 384-well microplates. The positive control, stromal-cell derived factor-1 (SDF-1α), was diluted in HBSS/Hepes buffer with 4 mg/ml fatty acid free bovine serum albumin. Two drug additions were made by the FLIPR. The first drug addition was the test drug in concentrations ranging from 2.44 nM to 40,000 nM. After this addition, fluorescent measurements were taken. Any calcium release in response to this drug addition represents agonist activity of the compounds. The second drug addition was SDF-1α at a final concentration of 1.9 nM (EC65). Fluorescence measurements were also taken after this second drug addition and were used to determine the ability of the test compounds to antagonize the SDF-1α response. Results were expressed as EC50 and efficacy values, as well as IC50 and percent antagonism values. As controls, SDF-1α (CXCR4 agonist) and AMD3100 (CXCR4 antagonist) dose-response curves were also determined in each study.

For orientation: IC50 means the midpoint of a concentration-inhibition curve.

Some results are limits rather than exact numbers.

T1 sequence (P61073 whole entry): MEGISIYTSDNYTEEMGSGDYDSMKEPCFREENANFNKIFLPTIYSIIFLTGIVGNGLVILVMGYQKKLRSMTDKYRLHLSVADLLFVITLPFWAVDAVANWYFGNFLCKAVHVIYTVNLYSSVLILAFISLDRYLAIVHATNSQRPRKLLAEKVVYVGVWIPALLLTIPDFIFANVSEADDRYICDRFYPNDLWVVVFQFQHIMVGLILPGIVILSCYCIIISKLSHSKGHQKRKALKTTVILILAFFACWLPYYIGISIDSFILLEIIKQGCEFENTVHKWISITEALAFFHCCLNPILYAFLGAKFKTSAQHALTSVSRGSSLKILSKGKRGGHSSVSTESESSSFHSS

For the molecule `COc1cccc(N(C)C)c1CN1CCC(Nc2nc(NC[C@@H]3CCN(C(=O)OC(C)(C)C)C3)nc3ccccc23)CC1` [Compound 112, (S)-tert-Butyl 3-((4-(1-(2-(Dimethylamino)-6-methoxybenzyl)piperidin-4-ylamino)quinazolin-2-ylamino)methyl)pyrrolidine-1-carboxylate], the “CXCR4 (% Inh)” value was 77%. Under “values given in μM”, inhibition was half-maximal at 2.1 µM (IC50).
Take `COc1cccc(N(C)C)c1CN1CCC(Nc2nc(NC[C@@H]3CCNC3)nc3ccccc23)CC1` [Compound 113, (R)—N-4-(1-(2-(Dimethylamino)-6-methoxybenzyl)piperidin-4-yl)-N2-(pyrrolidin-3-ylmethyl)quinazoline-2,4-diamine]: the “CXCR4 (% Inh)” value was 99%. For the same molecule, the half-maximal inhibitory concentration (IC50) (values in nM) was 0.129 µM.
For the molecule `COc1cccc(N(C)C)c1CN1CCC(Nc2nc(NCC[C@@H]3CCCN3C(=O)OC(C)(C)C)nc3ccccc23)CC1` [Compound 114, (S)-tert-Butyl 2-(2-(4-(1-(2-(Dimethylamino)-6-methoxybenzyl)piperidin-4-ylamino)quinazolin-2-ylamino)ethyl)pyrrolidine-1-carboxylate], the “CXCR4 (% Inh)” value is on record as 75%. For the same molecule, for the setting “values given in μM”, the 50% inhibitory concentration (IC50) came out at 2.1 µM.
Consider `COc1cccc(N(C)C)c1CN1CCC(Nc2nc(NCC[C@@H]3CCCN3)nc3ccccc23)CC1` [Compound 115, (S)—N-4-(1-(2-(Dimethylamino)-6-methoxybenzyl)piperidin-4-yl)-N2-(2-(pyrrolidin-2-yl)ethyl)quinazoline-2,4-diamine], for which the “CXCR4 (% Inh)” value was 95%. The molecule further gave a concentration for half-maximal inhibition (IC50) (values in nM) of 0.234 µM.
For `COc1cccc(N(C)C)c1CN1CCC(Nc2nc(NCC[C@H]3CCCN3C(=O)OC(C)(C)C)nc3ccccc23)CC1` [Compound 116, (R)-tert-Butyl 2-(2-(4-(1-(2-(Dimethylamino)-6-methoxybenzyl)piperidin-4-ylamino)quinazolin-2-ylamino)ethyl)pyrrolidine-1-carboxylate], the “CXCR4 (% Inh)” value was determined as 83%. Further, 2.2 µM corresponded to half-maximal inhibition (values given in μM) (IC50).
Regarding `COc1cccc(N(C)C)c1CN1CCC(Nc2nc(NCC[C@H]3CCCN3)nc3ccccc23)CC1` [Compound 117, (R)—N-4-(1-(2-(Dimethylamino)-6-methoxybenzyl)piperidin-4-yl)-N2-(2-(pyrrolidin-2-yl)ethyl)quinazoline-2,4-diamine], the “CXCR4 (% Inh)” value is recorded as 95%. Where the note is “values in nM”, this molecule registered a 50% inhibitory concentration (IC50) of 0.319 µM.
Take `COc1cccc(N(C)C)c1CN1CCC(Nc2nc(NCCNC(C)=O)nc3ccccc23)CC1` [Compound 118, N-(2-(4-(1-(2-(Dimethylamino)-6-methoxybenzyl)piperidin-4-ylamino)quinazolin-2-ylamino)ethyl)acetamide]: the “CXCR4 (% Inh)” value is listed as 97%. Where the note is “values in nM”, this molecule returned an IC50 of 0.762 µM.
Turning to `COc1cccc(N(C)C)c1CN1CCC(Nc2nc(NCCc3c[nH]cn3)nc3ccccc23)CC1` [Compound 119, N2-(2-(1H-Imidazol-4-yl)ethyl)-N4-(1-(2-(dimethylamino)-6-methoxybenzyl)piperidin-4-yl)quinazoline-2,4-diamine], the “CXCR4 (% Inh)” value was 96%. Further, for the setting “values in nM”, the IC50 worked out at 0.387 µM.
As to `COc1cccc(N(C)C)c1CN1CCC(Nc2nc(NCCCn3ccnc3)nc3ccccc23)CC1` [Compound 120, N2-(3-(1H-Imidazol-1-yl)propyl)-N4-(1-(2-(dimethylamino)-6-methoxybenzyl)piperidin-4-yl)quinazoline-2,4-diamine], the “CXCR4 (% Inh)” value stood at 95%. Moreover, for the setting “values given in μM”, the IC50 was determined as 1.7 µM.
`COc1cccc(N(C)C)c1CN1CCC(Nc2nc(NCC3CCN(C)C3)nc3ccccc23)CC1` (stereo not shown) [Compound 121, N4-(1-(2-(Dimethylamino)-6-methoxybenzyl)piperidin-4-yl)-N2-((1-methylpyrrolidin-3-yl)methyl)quinazoline-2,4-diamine]: the “CXCR4 (% Inh)” value was determined as 97%. Also, the IC50 (values in nM) is 0.38 µM.
`COc1cc2nc(NC[C@@H]3CCNC3)nc(NC3CCN(Cc4c(OCCN(C)C)cccc4N(C)C)CC3)c2cc1OC` [Compound 123, (R)—N-4-(1-(2-(Dimethylamino)-6-(2-(dimethylamino)ethoxy)benzyl)piperidin-4-yl)-6,7-dimethoxy-N2-(pyrrolidin-3-ylmethyl)quinazoline-2,4-diamine]: the “CXCR4 (% Inh)” value was 96%. For the same molecule, 0.084 µM corresponded to half-maximal inhibition (values in nM) (IC50).
On to `COc1cccc(N(C)C)c1CN1CCC(Nc2nc(NCCN)nc3ccccc23)CC1` [Compound 125, N2-(2-Aminoethyl)-N4-(1-(2-(dimethylamino)-6-methoxybenzyl)piperidin-4-yl)quinazoline-2,4-diamine], for which the “CXCR4 (% Inh)” value was 97%. The molecule further displayed a 50% inhibitory concentration (IC50) (values in nM) of 0.268 µM.
Take `COc1cccc(N(C)C)c1CN1CCC(Nc2nc(NCCNC(=O)NC(C)C)nc3ccccc23)CC1` [Compound 126, 1-(2-(4-(1-(2-(Dimethylamino)-6-methoxybenzyl)piperidin-4-ylamino)quinazolin-2-ylamino)ethyl)-3-isopropylurea]: the “CXCR4 (% Inh)” value is on record as 96%. In addition, it took 2.9 µM to reach half-maximal inhibition (values given in μM) (IC50).
Turning to `CN(C)CCCNc1nc(NC2CCN(Cc3ccccc3-n3cccc3)CC2)c2ccccc2n1` [Compound 130, N4-(1-(2-(1H-Pyrrol-1-yl)benzyl)piperidin-4-yl)-N2-(3-(dimethylamino)propyl)quinazoline-2,4-diamine], the “CXCR4 (% Inh)” value came out at 75%. This molecule also registered an IC50 (values in nM) of 0.978 µM.
For the molecule `CCN(CC)CCCNc1nc(NC2CCN(Cc3ccccc3-n3ccnc3)CC2)c2ccccc2n1` [Compound 131, N4-(1-(2-(1H-Imidazol-1-yl)benzyl)piperidin-4-yl)-N2-(3-(diethylamino)propyl)quinazoline-2,4-diamine], the “CXCR4 (% Inh)” value amounted to 74%. For the same molecule, where the note is “values given in μM”, the IC50 came out at 6.6 µM.
For `CCN(CC)CCCNc1nc(NC2CCN(Cc3ccccc3-n3cccc3)CC2)c2ccccc2n1` [Compound 132, N4-(1-(2-(1H-Pyrrol-1-yl)benzyl)piperidin-4-yl)-N2-(3-(diethylamino)propyl)quinazoline-2,4-diamine], the “CXCR4 (% Inh)” value is listed as 84%. This molecule had a half-inhibitory concentration (IC50) (values given in μM) of 1.4 µM.
Turning to `CCN(CC)CCCNc1nc(NC2CCN(Cc3cccc4ccn(C)c34)CC2)c2ccccc2n1` [Compound 133, N2-(3-(Diethylamino)propyl)-N4-(1-((1-methyl-1H-indol-7-yl)methyl)piperidin-4-yl)quinazoline-2,4-diamine], the “CXCR4 (% Inh)” value was determined as 63%. The midpoint of inhibition (values given in μM), the IC50, lay at 2.2 µM.
Consider `CCN(CC)CCCNc1nc(NC2CCN(Cc3c(OC(C)C)cccc3N(C)C)CC2)c2cc(OC)c(OC)cc2n1` [Compound 139, N˜2˜-[3-(Diethylamino)propyl]-N˜4˜-{1-[2-(dimethylamino)-6-isopropoxybenzyl]piperidin-4-yl}-6,7-dimethoxyquinazoline-2,4-diamine], for which the “CXCR4 (% Inh)” value is listed as 93%. This molecule registered an IC50 (values given in μM) of 1.4 µM.
The corresponding values for `COc1cccc(N(C)C)c1CN1CCC(Nc2nc(NCCCN(C)C)nc3ccc(Br)cc23)CC1` [Compound 146, 6-Bromo-N˜4˜-{1-[2-(dimethylamino)-6-methoxybenzyl]piperidin-4-yl}-N˜2˜-[3-(dimethylamino)propyl]quinazoline-2,4-diamine] are 96% and 1.2 µM.
As to `CCN(CC)CCCNc1nc(NC2CCN(Cc3ccccc3N)CC2)c2ccccc2n1` [Compound 149, N˜4˜-[1-(2-Aminobenzyl)piperidin-4-yl]-N˜2˜-[3-(diethylamino)propyl]quinazoline-2,4-diamine], the “CXCR4 (% Inh)” value stood at 68%. This molecule also showed an IC50 (values given in μM) of over 10 µM.
On to `CCN(CC)CCCNc1nc(NC2CCN(Cc3cccc(C)c3N(C)C)CC2)c2ccccc2n1` [Compound 152, N˜2˜-[3-(Diethylamino)propyl]-N˜4˜-{1-[2-(dimethylamino)-3-methylbenzyl]piperidin-4-yl}quinazoline-2,4-diamine], for which the “CXCR4 (% Inh)” value turned out to be 100%. Also, the IC50 (values given in μM) was 1.4 µM.
For `COc1cccc(N(C)C)c1CN1CCC(Nc2nc(NCCN(C)C)nc3ccccc23)CC1` [Compound 153, N˜2˜-[2-(Dimethylamino)ethyl]-N˜4˜-{1-[2-(dimethylamino)-6-methoxybenzyl]piperidin-4-yl}quinazoline-2,4-diamine], the “CXCR4 (% Inh)” value came out at 98%. Further, half-maximal inhibition (values in nM) (IC50) required 0.118 µM.
With `COc1cccc(N(C)C)c1CN1CCC(Nc2nc(NCCN3CCN(C)CC3)nc3ccccc23)CC1` [Compound 154, N˜4˜-{1-[2-(Dimethylamino)-6-methoxybenzyl]piperidin-4-yl}-N˜2˜-[2-(4-methylpiperazin-1-yl)ethyl]quinazoline-2,4-diamine], the “CXCR4 (% Inh)” value is on record as 97%. The molecule further showed an IC50 (values in nM) of 0.56 µM.

Values taken from patent US8193203B2, “Bicyclic compounds having activity at the CXCR4 receptor” (Allergan, Inc., priority 2008, dated 2012).
